Key:
[1] = system: SW1573/WT wild type non-small lung human cell line; assay: Cell growth assay (SRB) in SW1573/WT; assay type: cell-based; conditions: for IC50: Homo sapiens, SW1573, SW 1573/WT; for Ratio of IC50 in the presence of dipyridamole / IC50 in the absence of dipyridamole / Ratio of IC50 in the presence of, compared to in the absence of, dipyridamole: SW 1573/WT; for Ratio of IC50 in the presence of dipyridamole / IC50 in the absence of dipyridamole: 4-N-acyl and 4-N-phosphoryl derivatives (Table 5); for Ratio of IC50 in the presence of, compared to in the absence of, dipyridamole: acetylated 4-N-acyl derivatives (Table 7)
Experimental: (§1) Biological activities of the Gemcitabine derivative (which may be referred to as analogues) described above were evaluated with two assays: • 1. Cell growth assay using the SRB assay in cell lines A549/WT, SW1573/WT, PANC-01 and BXPC-3. • 2. MTT assay in human bladder cancer cell line T-24
(§2) The following cell lines were tested: • A549/WT —wild type human lung adenocarcinoma cell line (1) • SW1573/WT —wild type non-small lung human cell line (2), • PANC-01—human pancreatic cancer cell line (3) • BXPC-3 -epithelial human pancreatic adenocarcinoma cells (4).
(§3) Dipyridamole inhibits adenosine uptake by erythrocytes platelets and endothelial cells in vitro and in vivo. Thus, the present inventors recruited dipyridamole as an inhibitor of the nucleoside transporters of the tumour cells to observe the behaviour of the presently described Gemcitabine derivatives.
(§4) From the IC50 of each compound in the presence of dipyridamole, by dividing it with the IC50 of each compound in the absence of dipyridamole, the present inventors calculated a ratio that compared the efficacy of the analogous presence of dipyridamole.
(§5) Ratio=IC50 in the presence of dipyridamole/IC50 in the absence of dipyridamole • FIG. 10. Ratio of IC50 of 4-N-acyl and 4-N-phosphoryl derivatives in the presence of, compared to in the absence of, dipyridamole, in four cell lines

[2] = system: A549/WT wild type human lung adenocarcinoma cell line; assay: Cell growth assay (SRB) in A549/WT; assay type: cell-based; conditions: for Ratio of IC50 in the presence of dipyridamole / IC50 in the absence of dipyridamole / Ratio of IC50 in the presence of, compared to in the absence of, dipyridamole: A549/WT; for Ratio of IC50 in the presence of dipyridamole / IC50 in the absence of dipyridamole: 4-N-acyl and 4-N-phosphoryl derivatives (Table 5); for IC50: Homo sapiens, A549, A549/WT; for Ratio of IC50 in the presence of, compared to in the absence of, dipyridamole: acetylated 4-N-acyl derivatives (Table 7)
Experimental: as §1, §2, §3, §4, §5

[3] = system: PANC-01 human pancreatic cancer cell line; assay: Cell growth assay (SRB) in PANC-01; assay type: cell-based; conditions: for Ratio of IC50 in the presence of dipyridamole / IC50 in the absence of dipyridamole: 4-N-acyl and 4-N-phosphoryl derivatives (Table 5); for IC50: Homo sapiens, Pancreatic cancer cell; for Ratio of IC50 in the presence of, compared to in the absence of, dipyridamole: acetylated 4-N-acyl derivatives (Table 7)
Experimental: as §1, §2, §3, §4, §5

[4] = Human plasma stability; assay type: in vitro ADME; conditions: 37° C., 24 hours incubation, 0.1 μM, triplicates
Experimental: Human plasma stability of 4-N-ethyl carbamate
1. The final concentration of 4-N-ethyl carbamate Gemcitabine in human plasma was 0.1 μM.
2. Each sample was studied in triplicates.
3. The time points during incubation in which the present inventors evaluated the concentration of derivative were: 0, 1, 2, 4, 18 and 24 hours (FIG. 16). The derivative was stable after 24 hours incubation (96% still remaining).
4. A calibration curve was designed in order to quantify the concentration of derivative in human plasma (FIG. 17). Five calibrators were used at concentrations range of 0.01, 0.05, 0.1, 0.2 and 0.4 μM. Coefficient of determination (r^2) was calculated 0.999418.
5. Accuracy in terms of trueness and precision was evaluated through the analysis of three replicates at three concentration levels (low: 0.025 μM, mid: 0.08 μM and high: 0.3 μM). The trueness was expressed as the percentage difference between the calculated concentrations and the theoretical prepared concentrations while precision was expressed as CV%.
6. LOQ was determined at 0.01 μM with trueness and precision 8.49% and 9.66% respectively and within the acceptable limits for LOQ (<20%).
FIG. 17. In vitro stability of Ethyl-(4-N-Gemcitabine) carbamate (derivative 1) after 24 h incubation in human plasma at 37° C.

[5] = system: BXPC-3 epithelial human pancreatic adenocarcinoma cells; assay: Cell growth assay (SRB) in BXPC-3; assay type: cell-based; conditions: for Ratio of IC50 in the presence of dipyridamole / IC50 in the absence of dipyridamole / Ratio of IC50 in the presence of, compared to in the absence of, dipyridamole: BXPC-3; for Ratio of IC50 in the presence of dipyridamole / IC50 in the absence of dipyridamole: 4-N-acyl and 4-N-phosphoryl derivatives (Table 5); for IC50: Homo sapiens, BXPC-3, BXPC-3; for Ratio of IC50 in the presence of, compared to in the absence of, dipyridamole: acetylated 4-N-acyl derivatives (Table 7)
Experimental: as §1, §2, §3, §4, §5

[6] = Photolysis under UV irradiation (absorption spectrum); assay type: physicochemical; conditions: 10 μM in MeOH, UV lamp at 366 nm for 240 minutes, room temperature
Source text: After ultraviolet irradiation at a specific photo-digested group wavelength in the range from 350 to 500 nm (or greater than 700 nm when utilising two photon excitation), the active form of the encapsulated molecule is released irreversibly. Photo-inclusion has often been performed in vitro for the spatio-temporal control of biological processes and the release of light-induced payload. […] The present inventors believe that this dual strategy is of great value for therapeutic applications while it requires non-invasive and space-time drug activation. In order to show this dual drug release mechanism, the present inventors performed photolysis experiments (FIG. 2).
The spectra of derivative 7 (10 μM) and Gemcitabine (5 μM) were recorded on a Perkin Elmer Lambda 25 spectrometer at room temperature. The samples were solubilized in MeOH grade HPLC grade and irradiated with UV lamp at 366 nm for 240 minutes. The present inventors noticed that in the range of 280-290 nm and 320-330 nm there is a decrease in the absorption intensity and at the same time there is an increase in intensity to 250-270 nm. […] This theory is supported by the increase in the band corresponding to Gemcitabine.

[7] = system: human bladder cancer cell line T-24; assay: MTT assay, cell viability of T-24 cells; assay type: cell-based; conditions: 100 μM; for inhibition of cell growth (cell viability, MTT), order of potency: 5000 cells/well; for cell viability (MTT), most potent derivatives: 10000 cells/well
Experimental: as §1
The cell viability of T-24 bladder cancer cells upon treatment with the Gemcitabine derivatives was evaluated using the MTT assay. T24 cancer cells were cultured in DMEM (Gibco) high glucose supplemented with 10% FBS and 1% Penicillin/Streptomycin (100 U/mL Penicillin and 100 μg/mL Streptomycin), at 37 ° C. in humidified atmosphere of 5% CO2.
For the MTT assay 5000 or 10000 cells were seeded in triplicates in 96-well plates. Stock solutions of each derivative were prepared in DMSO/EtOH (1:1 v/v). Then, the cells were treated and incubated with 100 μM of each compound for 24 or 48 hours. After the completion of the incubation time, 10 μL of MTT solution (5 mg/ml in PBS buffer) were added in each well and incubated for 4 hrs. Finally, to stop the reaction, the supernatant from each well was removed and 100 μL of stop mix solution (20% SDS in 50% dimethyl formamide in water) were added. The plate remained in darkness for 2 h and the absorbance was measured at 540 nm via a microplate ELISA reader (Awareness Technology Inc.) with a reference at 630 nm. The % cell viability for each compound was calculated relatively to the absorbance of the untreated cells (control).
Two sets of experiments were performed at concentrations of 100 μM, and the absorption of formazan was measured after 24 and 48 hours.
Another experiment was conducted with the MTT assay where the compounds were incubated for 48 hours at […] derivative concentration where the number of cells seeded per well was 10000.

[8] = 4-N-acyl and 4-N-phosphoryl derivatives (Table 4)
[9] = acetylated 4-N-acyl derivatives (Table 6)

IC50 [1, 8] [nM]	Ratio of IC50 in the presence of dipyridamole / IC50 in the absence of dipyridamole [1]	Ratio of IC50 in the presence of dipyridamole / IC50 in the absence of dipyridamole [2]	IC50 [2, 8] [nM]	Ratio of IC50 in the presence of dipyridamole / IC50 in the absence of dipyridamole [3]	IC50 [3, 8] [nM]	Ratio of IC50 in the presence of dipyridamole / IC50 in the absence of dipyridamole [5]	IC50 [5, 8] [nM]	IC50 [1, 9] [nM]	Ratio of IC50 in the presence of, compared to in the absence of, dipyridamole [1]	Ratio of IC50 in the presence of, compared to in the absence of, dipyridamole [2]	IC50 [2, 9] [nM]	IC50 [3, 9] [nM]	Ratio of IC50 in the presence of, compared to in the absence of, dipyridamole [3]	Ratio of IC50 in the presence of, compared to in the absence of, dipyridamole [5]	IC50 [5, 9] [nM]	Structure (SMILES)	inhibition of cell growth (cell viability, MTT), order of potency ([7]; 24 hours)	inhibition of cell growth (cell viability, MTT), order of potency ([7]; 48 hours)	cell viability (MTT), most potent derivatives ([7]; 48 hours)	also measured
								140		2.4	2000	700	1.8	3.5	95	CC(=O)OCC1OC(n2ccc(NC(=O)OCCl)nc2=O)C(F)(F)C1OC(C)=O (stereo not shown) [Derivative 17]	greater potency than the parent drug Gemcitabine	17>4>11 and then Gemcitabine		
11	22.7	15	18	3.4	52	26.6	9	9.6	1	18	15	31	7.4	24.3	13	Nc1ccn([C@@H]2O[C@H](CO)[C@@H](O)C2(F)F)c(=O)n1 [Gemcitabine, 2′,2′-difluoro-2′-deoxycytidine, reference compound]		17>4>11 and then Gemcitabine		

Further lines, the compound ahead of its results:

Structure (SMILES)	IC50 [1, 8] [nM]	Ratio of IC50 in the presence of dipyridamole / IC50 in the absence of dipyridamole [1]	Ratio of IC50 in the presence of dipyridamole / IC50 in the absence of dipyridamole [2]	IC50 [2, 8] [nM]	Ratio of IC50 in the presence of dipyridamole / IC50 in the absence of dipyridamole [3]	IC50 [3, 8] [nM]	Ratio of IC50 in the presence of dipyridamole / IC50 in the absence of dipyridamole [5]	IC50 [5, 8] [nM]	IC50 [1, 9] [nM]	Ratio of IC50 in the presence of, compared to in the absence of, dipyridamole [1]	Ratio of IC50 in the presence of, compared to in the absence of, dipyridamole [2]	IC50 [2, 9] [nM]	IC50 [3, 9] [nM]	Ratio of IC50 in the presence of, compared to in the absence of, dipyridamole [3]	Ratio of IC50 in the presence of, compared to in the absence of, dipyridamole [5]	IC50 [5, 9] [nM]	inhibition of cell growth (cell viability, MTT), order of potency ([7]; 24 hours)	inhibition of cell growth (cell viability, MTT), order of potency ([7]; 48 hours)	cell viability (MTT), most potent derivatives ([7]; 48 hours)	also measured
CCOC(=O)Nc1ccn(C2OC(CO)C(O)C2(F)F)c(=O)n1 (stereo not shown) [Derivative 1, Ethyl-(4-N-Gemcitabine) carbamate]	1150	21	16.2	1600	4.1	3900	23.2	860												still remaining after incubation in human plasma [4]: 96%
COc1cc(COC(=O)Nc2ccn(C3OC(CO)C(O)C3(F)F)c(=O)n2)c([N+](=O)[O-])cc1OC (stereo not shown) [Derivative 7, (4,5-dimethoxy)-2-nitrobenzyl-(4-N-Gemcitabine) carbamate]	440	11	14.2	460	3.3	1500	13.9	230												photolysis on irradiation (absorption spectrum over time) [6]: release of Gemcitabine
O=C(Nc1ccn(C2OC(CO)C(O)C2(F)F)c(=O)n1)OCc1cn(C2=CC3C=CC(O)=CC3OC2=O)nn1 (stereo not shown) [Derivative 11, (1-(7-hydroxy-2-oxo-4a,8a-dihydro-2H-chromen-3-yl)-1H-1,2,3-triazol-4-yl) methyl-4-N-Gemcitabine carbamate]	420	11.9	11	430	4.6	1600	25	200									greater potency than the parent drug Gemcitabine	17>4>11 and then Gemcitabine	most potent	
CCCCOC(=O)Nc1ccn(C2OC(COC(C)=O)C(OC(C)=O)C2(F)F)c(=O)n1 (stereo not shown) [Derivative 14]									2800	1.4	0.83	3100	6500	0.9	1.77	1350			most potent	
